For data set [1], the target named is T1, Gonadotropin-releasing hormone receptor (Homo sapiens, UniProt P30968).
T1 sequence (P30968 whole entry): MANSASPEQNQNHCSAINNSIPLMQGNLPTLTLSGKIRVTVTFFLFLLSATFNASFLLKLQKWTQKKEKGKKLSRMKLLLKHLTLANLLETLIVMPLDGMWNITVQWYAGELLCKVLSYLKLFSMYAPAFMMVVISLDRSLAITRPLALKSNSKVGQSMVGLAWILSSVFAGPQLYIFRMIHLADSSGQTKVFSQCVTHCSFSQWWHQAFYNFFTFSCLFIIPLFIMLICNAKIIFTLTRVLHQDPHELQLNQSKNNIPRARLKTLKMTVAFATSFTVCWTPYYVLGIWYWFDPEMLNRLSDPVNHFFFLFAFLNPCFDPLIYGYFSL
The experiment in a line: (§1) Displacement of [125I]-DTyr6-His5-GnRH from human type 1 GnRH receptor expressed in HEK293 cell membranes after 16 to 19 hrs by gamma counting analysis. For orientation: Displacement assays read how much labelled ligand stays bound in the presence of the test substance.

Data set [2] concerns the target T2, Gonadotropin-releasing hormone receptor (Homo sapiens) (UniProt P30968).
T2 sequence (whole entry): T1 sequence (P30968 whole entry)
The description is as §1.

Data set [3] in a line: Metabolic stability in rat plasma assessed as half life at 100 uM by HPLC/mass spectrometric analysis. In kind it is ADME, cell-free.
For the next data set, the system named is HEK293. The experiment in a line: Antiproliferative activity against HEK293 cells expressing human type 1 GnRH receptor at 1 uM after 4 days by MTT assay. In kind it is functional, cell-based. Background: Tetrazolium assays rely on reduction of a dye to a coloured formazan, in cell work by metabolically active cells.
A short description of data set [4]: Metabolic stability in rat plasma at 100 uM after 4 hrs by HPLC/mass spectrometric analysis relative to GnRH2. Conditions: read-out: Stability. In kind it is ADME, cell-free.
The nature of data set [5]: Metabolic stability in rat plasma at 100 uM after 4 hrs by HPLC/mass spectrometric analysis relative to GnRH1. Conditions: read-out: Stability. In kind it is ADME, cell-free.

Consider eight compounds from ChEMBL document CHEMBL3751836, “Novel peptidomimetics related to gonadotropin-releasing hormone (GnRH)” (Medchemcomm, 2015).

Active and inactive are the calls of the source. The rule behind the calls is not given here.

In the case of `NC(=O)CNC(=O)[C@H]1CCCN1C(=O)[C@H](Cc1ccc(O)cc1)NC(=O)[C@H](Cc1c[nH]c2ccccc12)NC(=O)C1(NC(=O)[C@@H](Cc2cnc[nH]2)NC(=O)[C@@H](CO)NC(=O)[C@@H](Cc2c[nH]c3ccccc23)NC(=O)[C@@H](Cc2c[nH]cn2)NC(=O)[C@H]2CCC(=O)N2)CCCC1`, the 50% inhibitory concentration (IC50) in data set [1] is 0.282 µM. For the same compound, the Activity entry in data set [2] was “Dose-dependent effect”.
Take `CC(C)C[C@H](NC(=O)CNC(=O)[C@H](Cc1ccc(O)cc1)NC(=O)[C@H](CO)NC(=O)[C@H](Cc1c[nH]c2ccccc12)NC(=O)[C@H](Cc1cnc[nH]1)NC(=O)[C@@H]1CCC(=O)N1)C(=O)N[C@@H](CCCNC(=N)N)C(=O)N1CCC[C@H]1C(=O)NCC(N)=O` [GONADORELIN]: the half-life at 100 µM in data set [3] is 2.63 h.
As for `CC(C)C[C@H](NC(=O)C1(NC(=O)[C@H](Cc2ccc(O)cc2)NC(=O)[C@H](CO)NC(=O)[C@H](Cc2c[nH]c3ccccc23)NC(=O)[C@H](Cc2c[nH]cn2)NC(=O)[C@@H]2CCC(=O)N2)CCCC1)C(=O)N[C@@H](CCCNC(=N)N)C(=O)N1CCC[C@H]1C(=O)NCC(N)=O`, the IC50 in data set [1] was 0.589 µM. Further, the Activity result in data set [2] was “Dose-dependent effect”.
For `NC(=O)CNC(=O)[C@@H]1CCCN1C(=O)[C@@H](Cc1ccc(O)cc1)NC(=O)[C@@H](Cc1c[nH]c2ccccc12)NC(=O)C1(NC(=O)[C@H](Cc2cnc[nH]2)NC(=O)[C@H](CO)NC(=O)[C@H](Cc2c[nH]c3ccccc23)NC(=O)[C@H](Cc2c[nH]cn2)NC(=O)[C@@H]2CCC(=O)N2)CCCCC1`, in data set [1], the IC50 is 0.407 µM. The Activity entry in data set [2] was “Dose-dependent effect”. Besides, the result in the data set on HEK293 was Active. In addition, in data set [4], the remaining at 4 h, 100 µM came out at 15%.
Turning to `CC(C)C[C@H](NC(=O)C1(NC(=O)[C@H](Cc2ccc(O)cc2)NC(=O)[C@H](CO)NC(=O)[C@H](Cc2c[nH]c3ccccc23)NC(=O)[C@H](Cc2c[nH]cn2)NC(=O)[C@@H]2CCC(=O)N2)CCCCC1)C(=O)N[C@@H](CCCNC(=N)N)C(=O)N1CCC[C@H]1C(=O)NCC(N)=O`, in data set [1], the IC50 was 0.55 µM. The Activity entry in data set [2] is “Dose-dependent effect”. In addition, the half-life at 100 µM in data set [3] is 3.96 h. Moreover, the remaining at 4 h, 100 µM in data set [5] was 15%.
As to `CCNC(=O)[C@@H]1CCCN1C(=O)[C@H](CCCNC(=N)N)NC(=O)[C@H](CC(C)C)NC(=O)[C@@H](CC(C)C)NC(=O)[C@H](Cc1ccc(O)cc1)NC(=O)[C@H](CO)NC(=O)[C@H](Cc1c[nH]c2ccccc12)NC(=O)[C@H](Cc1c[nH]cn1)NC(=O)[C@@H]1CCC(=O)N1`, the outcome in the data set on HEK293 was Active.
For the compound `NC(=O)CNC(=O)[C@H]1CCCN1C(=O)[C@H](Cc1ccc(O)cc1)NC(=O)[C@H](Cc1c[nH]c2ccccc12)NC(=O)C1(NC(=O)[C@@H](Cc2cnc[nH]2)NC(=O)[C@@H](CO)NC(=O)[C@@H](Cc2c[nH]c3ccccc23)NC(=O)[C@@H](Cc2c[nH]cn2)NC(=O)[C@H]2CCC(=O)N2)CCC1`, in data set [1], the IC50 was 0.191 µM. Also, the Activity result in data set [2] was “Dose-dependent effect”.
In data set [1], `CC(C)C[C@H](NC(=O)CN1CN(c2ccccc2)C2(CCN(C(=O)[C@H](Cc3c[nH]c4ccccc34)NC(=O)[C@H](Cc3c[nH]cn3)NC(=O)[C@@H]3CCC(=O)N3)CC2)C1=O)C(=O)N[C@@H](CCCNC(=N)N)C(=O)N1CCC[C@H]1C(=O)NCC(N)=O` showed an IC50 of 0.724 µM. In data set [2], the Activity result is “Dose-dependent effect”.

A word on the IC50: it is the concentration needed to halve the response being measured. One may read the half-life as how long it takes for the measured level to halve.
